≈ marks a conversion by molar mass, not a printed value. Calls of active or inactive are those of the source. No cut-off for these calls is given here.
Key:
KB = assay: Cytotoxicity against human KB cells; format: functional, cell-based
LoVo = assay: Cytotoxicity against human LoVo cells; format: functional, cell-based

SMILES | Activity (KB) | Activity (LoVo) | IC50 (KB) [µg/mL] | IC50 (LoVo) [µg/mL]
CC[C@H](C)[C@@H](C(=O)N1CCC[C@H]1c1nccs1)N(C)C(=O)[C@H](CC(C)C)N(C)C(=O)[C@H](Cc1ccc(OC)cc1)N(C)C(=O)/C=C(\C)OC | inactive | inactive | – | –
CC(C)[C@@H]1NC(=O)CNC(=O)[C@@H]2CSC(=N2)[C@H](C(C)(C)O)OC(=O)C(C)(C)[C@H](CCCC(C)(Cl)Cl)OC(=O)c2csc1n2 [LYNGBYABELLIN B] | – | – | 0.1 (≈ 0.147 µM) | 0.83 (≈ 1.22 µM)
